One series can be described thus: in vitro. The method, boiled down: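 Cytoprotection read-out: CellTiter-Glo chemiluminescence after 5 days at 37 °C of HIV-IIIb-infected MT-4 cells (m.o.i. 0.003) with compound in 10-point 3-fold dilutions, quadruplicate, 10% FBS. Cytotoxicity (CC50) measured identically without virus.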
The next series has as its system HIV-IIIb. In words: Test A: Antiviral assay in MT4 cells. The series is classed as cell-based, HIV-1. The note with it: MT-4 cells infected with HIV-IIIb, 5 days, CellTiter-Glo; for inhibition at 2 µM: Human immunodeficiency virus 1, IIIB, MT4, 120 h, read-out: % inhibition at 2 μM, percent inhibition of virus-induced cell killing, from dose response curve at 2 uM drug. For orientation: In ATP-based viability assays light output follows the ATP content of the culture.

The mark [1] stands for this setting: human, uninfected MT-4 cells, CC50 (nM), same protocol as Test A, CellTiter-Glo.
Where [2] appears, read: human, CC50 (nM), uninfected MT-4 cells, same protocol as Test A, CellTiter-Glo.

Structures are written as SMILES.

As a reminder, the CC50 is the concentration that lowers cell viability or growth by half. Low readings indicate greater toxicity to the cells, high ones lower toxicity to the cells. A word on the inhibition: it is the share of the control response that was lost under treatment. Molecule `NC(=O)c1cc(-c2cccnc2[C@H](Cc2cc(F)cc(F)c2)NC(=O)Cn2nc(C(F)(F)F)c3c2CCC3(F)F)ccc1F` [Example 535G, (S)-5-(2-(1-(2-(4,4-difluoro-3-(trifluoromethyl)-5,6-dihydrocyclopenta[c]pyrazol-1(4H)-yl)acetamido)-2-(3,5-difluorophenyl)ethyl)pyridin-3-yl)-2-fluorobenzamide] returned a 50% cytotoxic concentration (CC50) at 5 days in the series “in vitro” (setting [1]) of 25300 nM. Also, in the series on HIV-IIIb, the inhibition at 2 µM turned out to be 9%.
The molecule `Cc1cc2[nH]cc(CC(=O)N[C@@H](Cc3cc(F)cc(F)c3)c3ncccc3-c3cccc(C(N)=O)c3)c2cc1OCc1ccccc1` [Example 536I, (S)-3-(2-(1-(2-(5-(benzyloxy)-6-methyl-1H-indol-3-yl)acetamido)-2-(3,5-difluorophenyl)ethyl)pyridin-3-yl)benzamide] returned a CC50 at 5 days in the series “in vitro” (setting [1]) of 8600 nM. Besides, the inhibition at 2 µM in the series with HIV-IIIb amounted to 12%.
For `CC(C)c1nccn1CC(=O)N[C@@H](Cc1cc(F)cc(F)c1)c1ncccc1-c1ccc(F)c(C(N)=O)c1` [Example 537, (S)-5-(2-(2-(3,5-difluorophenyl)-1-(2-(2-isopropyl-1H-imidazol-1-yl)acetamido)ethyl)pyridin-3-yl)-2-fluorobenzamide] the same measures were over 53200 nM and 2%.
For `CC(C)c1cc(C(C)C)n(CC(=O)N[C@@H](Cc2cc(F)cc(F)c2)c2ncccc2-c2ccc(F)c(C(N)=O)c2)n1` [Example 538, (S)-5-(2-(2-(3,5-difluorophenyl)-1-(2-(3,5-diisopropyl-1H-pyrazol-1-yl)acetamido)ethyl)pyridin-3-yl)-2-fluorobenzamide] the same measures were 23300 nM and 14%.
On the same counts, the results for `O=C(Cn1nc(C(F)F)cc1C(F)F)N[C@@H](Cc1cc(F)cc(F)c1)c1ncccc1-c1ccc(S(=O)(=O)N2CCOCC2)cc1` [Example 539, (S)-2-(3,5-bis(difluoromethyl)-1H-pyrazol-1-yl)-N-(2-(3,5-difluorophenyl)-1-(3-(4-(morpholinosulfonyl)phenyl)pyridin-2-yl)ethyl)acetamide] are 20800 nM and 10%.
For `CC(=O)c1cn(CC(=O)N[C@@H](Cc2cc(F)cc(F)c2)c2ncccc2-c2ccc(Cl)cc2)c2ccccc12` [Example 541, (S)-2-(3-acetyl-1H-indol-1-yl)-N-(1-(3-(4-chlorophenyl)pyridin-2-yl)-2-(3,5-difluorophenyl)ethyl)acetamide], in the series “in vitro” (setting [2]), the CC50 at 5 days was 8150 nM. The inhibition at 2 µM in the series on HIV-IIIb worked out at 37%.
Molecule `NC(=O)c1cc(-c2cccnc2[C@H](Cc2cc(F)cc(F)c2)NC(=O)Cn2nc(C(F)(F)F)cc2C(F)(F)F)ccc1F` [Example 542, (S)-5-(2-(1-(2-(3,5-bis(trifluoromethyl)-1H-pyrazol-1-yl)acetamido)-2-(3,5-difluorophenyl)ethyl)pyridin-3-yl)-2-fluorobenzamide] registered a CC50 at 5 days in the series “in vitro” (setting [1]) of 33600 nM. In addition, in the series with HIV-IIIb, the inhibition at 2 µM stood at 1%.
Broadly, the % inhibition is the share of the control response that was lost under treatment. Lower therefore signals little suppression. In “in vitro” (setting [2]), `CCC(C(=O)N[C@@H](Cc1cc(F)cc(F)c1)c1ncccc1-c1ccc(F)c(C(N)=O)c1)n1cc(C(C)=O)c2ccccc21` (stereo partly drawn) [Example 543, 5-(2-((1S)-1-(2-(3-acetyl-1H-indol-1-yl)butanamido)-2-(3,5-difluorophenyl)ethyl)pyridin-3-yl)-2-fluorobenzamide] gave a CC50 at 5 days of 44000 nM. Besides, the “% inhibition at 2 μM” value in the series with HIV-IIIb (percent inhibition of virus-induced cell killing, from dose response curve at 2 uM drug) was determined as 4%.
As to `Cc1ccc2ccn(CC(=O)N[C@@H](Cc3cc(F)cc(F)c3)c3ncccc3-c3ccc(F)c(C(N)=O)c3)c2c1` [Example 545, (S)-5-(2-(2-(3,5-difluorophenyl)-1-(2-(6-methyl-1H-indol-1-yl)acetamido)ethyl)pyridin-3-yl)-2-fluorobenzamide], the midpoint of cytotoxicity in “in vitro” (setting [1]), the CC50 at 5 days, lay at 15900 nM. Further, the inhibition at 2 µM in the series on HIV-IIIb was found to be 37%.
On the same counts, the results for `NC(=O)c1cccc(-c2cccnc2[C@H](Cc2cc(F)cc(F)c2)NC(=O)Cn2ccc3c(F)cc(F)cc32)c1` [Example 546C, (S)-3-(2-(1-(2-(4,6-difluoro-1H-indol-1-yl)acetamido)-2-(3,5-difluorophenyl)ethyl)pyridin-3-yl)benzamide] are 16800 nM and 15%.

The values above are taken from patent US9540343B2 (Gilead Sciences, Inc., priority 2011, dated 2017).
